Where “and” joins values, the source holds several entries; their conditions need not be identical. Equal entries are not always repeated.
Target: CAD protein (Mesocricetus auratus)
Assay: Compound ability to inhibit the catalytic activity of hamster Dihydroorotase (DHOase) expressed in Escherichia coli.

SMILES | Ki
O=C1CP(O)(O)=CC(C(=O)O)N1 (configuration not stated) [4-Hydroxy-4,6-dioxo-4lambda*5*-[1,4]azaphosphinane-2-carboxylic acid] | 4 µM
O=C1CP(O)(S)=C[C@@H](C(=O)O)N1 (stereo partly drawn) [(2R,4S)-4-Mercapto-4,6-dioxo-4lambda*5*-[1,4]azaphosphinane-2-carboxylic acid] | 2.9 µM and 3.1 µM
